Laboratory results as given in article PMC4148842 (The Journal of Biological Chemistry, 2014).
Entries after “also recorded” stand apart in the source; their conditions may differ. Each block holds one substance with its values, some of them ahead of it.

Tests used:
MMP-13 [1] = target: T1, MMP-13 (Homo sapiens, UniProt P45452); assay: MMP-13 Toolkit solid-phase binding assay (SPBA), wild type active MMP-13; set-up: made in house; host or cells: mouse myeloma cells; details: 1 h, 24 °C; for binding: wild type active MMP-13, 83 nM, coating 10 μg/ml
From the text: (§1) Recombinant proMMP-13 was expressed and purified as previously described ([18]). […] ProMMP-13(E204A) was expressed in Escherichia coli BL21(DE3), refolded, purified, and activated essentially as described for proMMP-1(E200A) ([19], [20]).
(§2) Unless stated otherwise, all peptides were triple-helical, a structure maintained by the flanking sequences, GPC(GPP)5- and -(GPP)5-GPC-amide, at their N and C terminus, respectively. For simplicity, peptides are referred to by their specific guest sequence. A negative control peptide, (GPC-(GPP)10-GPC-amide) is referred to as GPP10.
Immulon 2 HB 96-well plates (Nunc, Langenselbold, Germany) were coated with Collagen Toolkit or other peptides, fibrillar or monomeric collagen at a saturating concentration (10 μg/ml in 0.01 M acetic acid) overnight at 4 °C. Fibrous bovine type I collagen was a gift from Ethicon Corporation (Somerville, NJ). […] All further incubations were performed at 24 °C for 1 h unless otherwise stated. The wells were washed three times with adhesion buffer (1 mg/ml BSA in Tris-buffered saline (TBS) containing 0.1% (v/v) Tween-20) between each incubation step. […] Rabbit HRP-linked anti-GST (GE Healthcare; dilution 1:10,000) was used to detect GST-Hpx. […] Binding curves were fitted using Prism 5.0 software (GraphPad, San Diego), allowing total binding (Bmax) and equilibrium dissociation constant (KD) to be determined.
FIGURE 1. […] For reference, collagen D-periods corresponding to these peptides are shown as gray bars below, and the collagenase cleavage site indicated by an arrow.

MMP-13 [2] = target: T1, MMP-13; assay: MMP-13 Toolkit SPBA, pro and active forms, wild type and E204A taken together; type: binding; details: for binding of MMP-13 preparations: all or several MMP-13 preparations, SPBA
From the text: as §1, §2
Immulon 2 HB 96-well plates (Nunc, Langenselbold, Germany) were coated with Collagen Toolkit or other peptides, fibrillar or monomeric collagen at a saturating concentration (10 μg/ml in 0.01 M acetic acid) overnight at 4 °C. Fibrous bovine type I collagen was a gift from Ethicon Corporation (Somerville, NJ). Monomeric collagen was obtained from Devro (Bathurst, Australia). All further incubations were performed at 24 °C for 1 h unless otherwise stated. The wells were washed three times with adhesion buffer (1 mg/ml BSA in Tris-buffered saline (TBS) containing 0.1% (v/v) Tween-20) between each incubation step. The wells were blocked with 50 mg/ml BSA in TBS prior to the addition of MMP at a concentration of 83 nM (unless otherwise stated) in adhesion buffer. […] Rabbit HRP-linked anti-GST (GE Healthcare; dilution 1:10,000) was used to detect GST-Hpx. […] Binding curves were fitted using Prism 5.0 software (GraphPad, San Diego), allowing total binding (Bmax) and equilibrium dissociation constant (KD) to be determined.

proMMP-3 = details: ref [32]; cited from earlier work
From the text: (§3) How can MMP-13 avoid this constraint? […] The effect is to move the collagen-binding S10′ pocket of M ...

proMMP-9 = details: ref [32]; cited from earlier work
From the text: as §3

proMMP-1 = details: ref [7], [31]; cited from earlier work
From the text: as §3

[3] = test system: Cat domain of MMP-13 (Δ249–451); assay: MMP-13 Toolkit SPBA, isolated Cat domain; type: binding; details: data not shown for Toolkit II
Protocol: as §1
(§4) Immulon 2 HB 96-well plates (Nunc, Langenselbold, Germany) were coated with Collagen Toolkit or other peptides, fibrillar or monomeric collagen at a saturating concentration (10 μg/ml in 0.01 M acetic acid) overnight at 4 °C. Fibrous bovine type I collagen was a gift from Ethicon Corporation (Somerville, NJ). Monomeric collagen was obtained from Devro (Bathurst, Australia). All further incubations were performed at 24 °C for 1 h unless otherwise stated. The wells were washed three times with adhesion buffer (1 mg/ml BSA in Tris-buffered saline (TBS) containing 0.1% (v/v) Tween-20) between each incubation step. […] Binding curves were fitted using Prism 5.0 software (GraphPad, San Diego), allowing total binding (Bmax) and equilibrium dissociation constant (KD) to be determined.
Proteins were C-terminally biotinylated using an EZ-Link® Micro Sulfo-NHS-Biotinylation Kit (Pierce) according to the manufacturer's instructions. Successful biotinylation was detected via Western blotting using an ultrasensitive Streptavidin-Peroxidase Polymer (Sigma).

MMP-13 [4] = details: cited from earlier work
From the text: Collagenolytic MMPs are members of the zinc-dependent peptidase family whose tightly regulated proteolytic activities play a pivotal role in extracellular matrix homeostasis, cell migration and wound healing. […] The Cat and Hpx are thought to cooperate to recognize and bind to the cleavage site, in collagen D-period 4 (D4), three-quarters of the way along the tropocollagen molecule ([6], [7]). Binding of the Hpx is considered to facilitate local relaxation of the helix, allowing the Cat d ... || Comparison of the collagenase cleavage sites of the various fibrillar collagens with the sequences of the MMP-13-binding peptides provides a basis for their relative recognition and subsequent cleavage.

MMP-13(E204A) = target: T2, MMP-13(E204A) (Homo sapiens, UniProt P45452, E223A); assay: MMP-13 Toolkit SPBA, active-site mutant MMP-13(E204A); type: binding; details: 83 nM, coating 10 μg/ml, 1 h, 24 °C
T2 construct: made in house; host or cells: Escherichia coli BL21(DE3)
From the text: as §1, §2
as §4, with “determined. […]” for “determined.”

MMP-13 GST-Hpx domain = assay: MMP-13 Toolkit SPBA, isolated GST-Hpx domain; type: binding; details: Hpx 83 nM, anti-GST detection, 1 h, 24 °C
From the text: as §1, §2
as §4, with “determined. […]” for “determined.”

- binding (MMP-13 [1]): unable to bind
- binding of MMP-13 preparations (MMP-13 [2]): negligible binding
Substance: GCPP(GPPP)2GGPPPG-II-44 guest sequence -P(GPPP)2GGPPPGCPG-amide [linear peptide equivalent to II-44]

Substance: collagen
- binding of proMMP-3 (proMMP-3): can bind collagen
- binding of proMMP-9 (proMMP-9): can bind collagen
- binding of proMMP-1 (proMMP-1): did not bind
- binding of MMP-13 preparations (MMP-13 [2]): support firm adhesion of MMP-13 in both its active and pro- forms
- binding [3]: able to recognize collagen; also recorded: bound weakly

Substance: collagen II: preferred substrate for MMP-13
- relative cleavage rate by MMP-13 (MMP-13 [4]; collagen II compared with collagens I and III, ref [3]): five times faster than collagen I; also recorded: six times faster than collagen III
- cleavage site of MMP-13 (MMP-13 [4]; position within collagen II helical domain, ref [11], [12]): Gly^775–Leu^776; also recorded: Gly^778–Gln^779

- binding of MMP-13 preparations (MMP-13 [2]): supported no binding
Substance: GFOGLOGPS [44B, peptide containing only the missing triplets, GFOGLOGPS]

- binding (MMP-13 [1]): much lower binding
- binding (MMP-13(E204A)): much lower binding
Substance: monomeric type I collagen: Monomeric collagen obtained from Devro (Bathurst, Australia)

- A450 (adhesion) (MMP-13 [1]; wild type MMP-13 (active or pro form not stated for the numbers), 83 nM, plates coated 10 μg/ml, mean of four experiments): ≥ 1.0
- Kd (MMP-13 [2]; fibrillar collagen, MMP-13 preparations overall): ~40 nM
- binding (MMP-13 GST-Hpx domain): bound fibrillar collagen I
Substance: fibrillar type I collagen: Fibrous bovine type I collagen, a gift from Ethicon Corporation
- binding [3]: bound fibrillar collagen I, albeit weakly

- A450 (adhesion) (MMP-13(E204A); mean of four experiments): ~0.8
Substance: GPQG∼LAGQRGIVGLOGQRGER [44J, 21-residue peptide, P4 to P17′, parent of the Ala-scan]
- binding of MMP-13 preparations (MMP-13 [2]): MMP-13(E204A) binding most strongly (A450 ∼0.8), then proMMP-13, then proMMP-13(E204A), then active MMP-13, and lastly the Hpx domain alone
- A450 (adhesion) (MMP-13 GST-Hpx domain; coating 10 μg/ml, mean of four experiments): ~0.4
